Source: patent EP0466030B1, “N-acyl dipeptides and their use” (DEGUSSA AG, priority 1990, dated 1992)
Where a SMILES comes first, the peptide text is derived from it. Bridges are numbered along the chain shown (N, C = ends). Roman numbers before positions name the chains, in order. The star is where a group is joined. Butyryl = CCCC(=O)*

Legend:
[1] = Ratten; Z. Ernährungswiss. 28 (1989), 32 - 35; cited from earlier work
[2] = system: L1210 Mäuse-Leukaemiezellen; test: Comparative cell growth experiment with supplemented culture medium; type: cell-based; conditions: for Zellwachstum: comparison among the three supplements L-Glutamin, L-Alanyl-L-glutamin, N-Acetyl-L-alanyl-L-glutamin; for Wachstum im Vergleich zum glutaminfreien Medium: supplemented medium versus glutamine-free medium
Source text: Weiterhin wurde überraschend festgestellt, daß N-Acyldipeptide als Quelle für die C-terminalen Aminosäuren in Nährmedien für Zellkulturen dienen können.

[3] = Cleavage of the substrate by pig kidney homogenate (decrease of substrate followed by HPLC); type: in vitro ADME, Schwein; conditions: for spezifische Aktivität des Nierenhomogenisats: 1 ml supernatant + 1 ml 0,1 M Tris/HCl (pH 7) + 1 ml 30 mM substrate solution, 37°C, HPLC; for schneller als N-Acetyl-L-tyrosin gespalten: in vitro, Schweinenierenhomogenisat, rate relative to N-Acetyl-L-tyrosin
Experimental: 0,1 Mol L-Alanyl-L-tyrosin wurden in 50 ml 2N Natronlauge gelöst. Bei 0°C wurden 0,11 Mol Acetanhydrid in 18 ml Tetrahydrofuran und 27,5 ml 4N Natronlauge so zugetropft, daß der pH-Wert des Reaktionsgemisches stets bei etwa 11 lag. Nach Beendigung der Zugabe wurde 1 Stunde lang nachgerührt, dann mit konzentrierter Salzsäure auf pH 1 angesäuert und das Volumen der Lösung auf die Hälfte eingeengt. Das N-Acetyl-L-alanyl-L-tyrosin kristallisierte aus, wurde abfiltriert, mit Wasser gewaschen und getrocknet. […] 1 ml des nach 30-minütiger Zentrifugation bei 10000 U/min erhaltenen Überstandes wurden mit 1 ml 0,1 M Tris/HCl (pH 7)-Puffer und 1 ml einer 30 mM Lösung des Substrates in 0,1 M Tris/HCl (pH7)-Puffer versetzt und bei 37°C inkubiert. Die zeitliche Abnahme der Substratkonzentration wurde durch HPLC verfolgt.

[4] = system: L1210 Mäuse-Leukaemiezellen; conditions: general statement on cells, no source or experiment given; cited from earlier work

CC(=O)NCC(=O)N[C@@H](CSSC[C@H](NC(=O)CNC(C)=O)C(=O)O)C(=O)O [Bis-(acetylglycyl)-L,L-cystin] (I: Ac-Gly-Cys-OH / II: Ac-Gly-Cys-OH; disulfide I:2-II:2)
Eignung als Cysteinquelle bei der parenteralen Ernährung [1]: nicht als Cysteinquelle geeignet

C[C@H](N)C(=O)N[C@@H](CCC(N)=O)C(=O)O [L-Alanyl-L-glutamin] (H-Ala-Gln-OH)
Zellwachstum [2]: kein signifikanter Unterschied
Wachstum im Vergleich zum glutaminfreien Medium [2]: deutlich erhöhtes Wachstum

NC(=O)CC[C@H](N)C(=O)O [L-Glutamin]
Zellwachstum [2]: kein signifikanter Unterschied
Wachstum im Vergleich zum glutaminfreien Medium [2]: deutlich erhöhtes Wachstum

CC(=O)N[C@@H](C)C(=O)N[C@@H](CCC(N)=O)C(=O)O [N-Acetyl-L-alanyl-L-glutamin] (Ac-Ala-Gln-OH)
Zellwachstum [2]: kein signifikanter Unterschied
Wachstum im Vergleich zum glutaminfreien Medium [2]: deutlich erhöhtes Wachstum
von den Zellen verwertet ([2]; utilisation by L1210 cells as glutamine source): sehr gut verwertet

CC(=O)N[C@@H](C)C(=O)N[C@@H](Cc1ccc(O)cc1)C(=O)O [N-Acetyl-L-alanyl-L-tyrosin] (Ac-Ala-Tyr-OH)
spezifische Aktivität des Nierenhomogenisats [3]: 420 nMol pro Minute und g Niere
schneller als N-Acetyl-L-tyrosin gespalten [3]: 10 mal

CC(=O)N[C@@H](CCC(N)=O)C(=O)O [N-Acetyl-L-glutamin]
von Zellen genutzt [4]: nicht oder nur sehr schlecht genutzt

CCCC(=O)N[C@@H](C)C(=O)N[C@@H](Cc1ccc(O)cc1)C(=O)O [N-Butyryl-L-alanyl-L-tyrosin] (Butyryl-Ala-Tyr-OH)
spezifische Aktivität des Nierenhomogenisats [3]: 660 nMol pro Minute und g Niere
schneller als N-Acetyl-L-tyrosin gespalten [3]: 15 mal
